The values below come from ChEMBL document CHEMBL5584255, “Synthesis and antibacterial medicinal evaluation of carbothioamido hydrazonyl thiazolylquinolone with multitargeting antimicrobial potential to combat increasingly global resistance” (Eur J Med Chem, 2024).

Converted amounts (≈) assume the structure as drawn.

Type in all cases: functional
The test system of experiment [1] is Staphylococcus aureus. Description: Antibacterial activity against Staphylococcus aureus ATCC 25923 by microbroth dilution method. (Dilution methods test growth across graded concentrations, often in twofold steps.)
The subject of experiment [2] is Staphylococcus aureus. In words: Antibacterial activity against Staphylococcus aureus ATCC 29213 by microbroth dilution method.
For experiment [3], the system named is Staphylococcus aureus. Description: Antibacterial activity against drug-resistant Staphylococcus aureus by microbroth dilution method.
The subject of experiment [4] is Staphylococcus aureus. In words: Antibacterial activity against methicillin-resistant Staphylococcus aureus N315 by microbroth dilution method.
In experiment [5] the test system is Enterococcus faecalis. In words: Antibacterial activity against drug-resistant Enterococcus faecalis by microbroth dilution method.
Experiment [6] deals with Candida albicans. Description: Antifungal activity against Candida albicans ATCC 90023.
The test system of experiment [7] is Candida albicans. Description: Antifungal activity against drug-resistant Candida albicans.
Experiment [8] concerns Candida parapsilosis. In words: Antifungal activity against Candida parapsilosis ATCC 22019. The conditions noted are these: Lodderomyces parapsilosis.
Experiment [9] deals with Candida tropicalis. In words: Antifungal activity against drug-resistant Candida tropicalis.
Experiment [10] concerns Aspergillus fumigatus. In words: Antifungal activity against Aspergillus fumigatus.
Experiment [11] deals with Escherichia coli. Description: Antibacterial activity against Escherichia coli ATCC 25922 by microbroth dilution method.
The test system of experiment [12] is Pseudomonas aeruginosa. Description: Antibacterial activity against Pseudomonas aeruginosa ATCC 27853 by microbroth dilution method.
Experiment [13] relates to Escherichia coli. In words: Antibacterial activity against drug-resistant Escherichia coli by microbroth dilution method.
The subject of experiment [14] is Pseudomonas aeruginosa. In words: Antibacterial activity against Pseudomonas aeruginosa by microbroth dilution method.
Experiment [15] concerns Klebsiella pneumoniae. Description: Antibacterial activity against Klebsiella pneumoniae by microbroth dilution method.
For experiment [16], the system named is Acinetobacter baumannii. In words: Antibacterial activity against Acinetobacter baumannii by microbroth dilution method.

The MIC is the lowest concentration found to suppress growth.

Turning to `C/C(Cn1cc(-c2csc(C)n2)c(=O)c2cc(F)c(F)cc21)=N\NC(N)=S`, the MIC in [1] amounted to 1260 µM (≈ 513 µg/mL); in experiment [2] it was 1260 µM (≈ 513 µg/mL); in experiment [3], 1260 µM (≈ 513 µg/mL); in experiment [4] it was 1260 µM (≈ 513 µg/mL); in experiment [5] it was 629 µM (≈ 256 µg/mL); in experiment [6], 1260 µM (≈ 513 µg/mL). In addition, the MIC in [7] was 1260 µM (≈ 513 µg/mL); in experiment [8], 1260 µM (≈ 513 µg/mL); in experiment [9], 1260 µM (≈ 513 µg/mL); in experiment [10], 1260 µM (≈ 513 µg/mL); in experiment [11] it was 1260 µM (≈ 513 µg/mL); in experiment [12] it was 314 µM (≈ 128 µg/mL). In addition, the minimum inhibitory concentration (MIC) came to 1260 µM (≈ 513 µg/mL) in experiment [13], 314 µM (≈ 128 µg/mL) in experiment [14], 1260 µM (≈ 513 µg/mL) in experiment [15] and 314 µM (≈ 128 µg/mL) in experiment [16].
Take `CC(=O)Cn1cc(C(C)=O)c(=O)c2cc(F)c(Cl)cc21`: the minimal inhibitory concentration (MIC) turned out to be 868 µM (≈ 257 µg/mL) in experiment [1]; 1740 µM (≈ 513 µg/mL) in experiment [2]; 1740 µM (≈ 513 µg/mL) in experiment [3]; 868 µM (≈ 257 µg/mL) in [4]; 868 µM (≈ 257 µg/mL) in experiment [5]; 868 µM (≈ 257 µg/mL) in [6]. Also, the MIC in experiment [7] turned out to be 1740 µM (≈ 513 µg/mL); in experiment [8], 217 µM (≈ 64.2 µg/mL); in experiment [9] it was 1740 µM (≈ 513 µg/mL); in [10], 868 µM (≈ 257 µg/mL); in [11] it was 868 µM (≈ 257 µg/mL); in experiment [12] it was 434 µM (≈ 128 µg/mL). The minimum inhibitory concentration (MIC) in experiment [13] is 868 µM (≈ 257 µg/mL); in experiment [14] it was 434 µM (≈ 128 µg/mL); in experiment [15], 868 µM (≈ 257 µg/mL); in [16], 868 µM (≈ 257 µg/mL).
On to `C/C(Cn1cc(-c2csc(N)n2)c(=O)c2cc(F)cc(F)c21)=N\NC(N)=S`, for which the minimal inhibitory concentration (MIC) in experiment [1] turned out to be 157 µM (≈ 64.1 µg/mL); in experiment [2], 78 µM (≈ 31.9 µg/mL); in experiment [3], 78 µM (≈ 31.9 µg/mL); in experiment [4] it was 314 µM (≈ 128 µg/mL); in experiment [5], 1260 µM (≈ 513 µg/mL); in experiment [6] it was 627 µM (≈ 256 µg/mL). The minimum inhibitory concentration (MIC) worked out at 627 µM (≈ 256 µg/mL) in experiment [7]; 314 µM (≈ 128 µg/mL) in experiment [8]; 627 µM (≈ 256 µg/mL) in experiment [9]; 1260 µM (≈ 513 µg/mL) in experiment [10]; 1260 µM (≈ 513 µg/mL) in experiment [11]; 627 µM (≈ 256 µg/mL) in experiment [12]. Besides, the MIC came to 1260 µM (≈ 513 µg/mL) in [13], 627 µM (≈ 256 µg/mL) in [14], 627 µM (≈ 256 µg/mL) in experiment [15] and 627 µM (≈ 256 µg/mL) in experiment [16].
With `Nc1nc(-c2c[nH]c3c(F)cc(F)cc3c2=O)cs1`, the MIC worked out at 459 µM (≈ 128 µg/mL) in experiment [1]; 918 µM (≈ 256 µg/mL) in experiment [2]; 918 µM (≈ 256 µg/mL) in experiment [3]; 459 µM (≈ 128 µg/mL) in experiment [4]; 229 µM (≈ 64 µg/mL) in experiment [5]; 115 µM (≈ 32.1 µg/mL) in experiment [6]. For the same compound, the MIC in experiment [7] is 115 µM (≈ 32.1 µg/mL); in experiment [8] it was 459 µM (≈ 128 µg/mL); in experiment [9], 229 µM (≈ 64 µg/mL); in [10] it was 459 µM (≈ 128 µg/mL); in experiment [11], 459 µM (≈ 128 µg/mL); in experiment [12], 229 µM (≈ 64 µg/mL). For the same compound, the minimal inhibitory concentration (MIC) in [13], in experiment [14], in experiment [15] and in experiment [16] was 459 µM (≈ 128 µg/mL) in each case.
In the case of `Nc1nc(-c2c[nH]c3cc(Cl)c(F)cc3c2=O)cs1`, the minimal inhibitory concentration (MIC) in experiment [1] turned out to be 217 µM (≈ 64.2 µg/mL); in experiment [2], 434 µM (≈ 128 µg/mL); in experiment [3], 868 µM (≈ 257 µg/mL); in experiment [4], 1740 µM (≈ 513 µg/mL); in experiment [5], 868 µM (≈ 257 µg/mL); in [6], 109 µM (≈ 32.2 µg/mL). Further, the MIC was 217 µM (≈ 64.2 µg/mL) in experiment [7]; 1740 µM (≈ 513 µg/mL) in [8]; 217 µM (≈ 64.2 µg/mL) in experiment [9]; 217 µM (≈ 64.2 µg/mL) in experiment [10]; 217 µM (≈ 64.2 µg/mL) in experiment [11]; 868 µM (≈ 257 µg/mL) in experiment [12]. In addition, the minimal inhibitory concentration (MIC) in experiment [13] amounted to 434 µM (≈ 128 µg/mL); in experiment [14], 868 µM (≈ 257 µg/mL); in experiment [15], 868 µM (≈ 257 µg/mL); in [16] it was 868 µM (≈ 257 µg/mL).
Consider `CC(=O)Cn1cc(-c2csc(N)n2)c(=O)c2cc(F)cc(F)c21`, for which the MIC in experiment [1] worked out at 382 µM (≈ 128 µg/mL); in [2], 382 µM (≈ 128 µg/mL); in [3] it was 764 µM (≈ 256 µg/mL); in experiment [4] it was 382 µM (≈ 128 µg/mL); in experiment [5] it was 382 µM (≈ 128 µg/mL); in experiment [6] it was 382 µM (≈ 128 µg/mL). Besides, the MIC in [7] was 764 µM (≈ 256 µg/mL); in experiment [8], 764 µM (≈ 256 µg/mL); in experiment [9], 382 µM (≈ 128 µg/mL); in experiment [10], 382 µM (≈ 128 µg/mL); in [11], 382 µM (≈ 128 µg/mL); in experiment [12], 191 µM (≈ 64 µg/mL). Further, the minimum inhibitory concentration (MIC) in experiment [13] came out at 382 µM (≈ 128 µg/mL); in [14], 382 µM (≈ 128 µg/mL); in experiment [15], 764 µM (≈ 256 µg/mL); in experiment [16] it was 382 µM (≈ 128 µg/mL).
For the compound `C/C(Cn1cc(-c2csc(N)n2)c(=O)c2cc(F)c(F)cc21)=N\NC(N)=S`, the minimal inhibitory concentration (MIC) in experiment [1] worked out at 78 µM (≈ 31.9 µg/mL); in experiment [2], 39 µM (≈ 15.9 µg/mL); in experiment [3], 78 µM (≈ 31.9 µg/mL); in [4], 78 µM (≈ 31.9 µg/mL); in [5] it was 627 µM (≈ 256 µg/mL); in experiment [6], 314 µM (≈ 128 µg/mL). For the same compound, the MIC in experiment [7] was 1260 µM (≈ 513 µg/mL); in experiment [8] it was 1260 µM (≈ 513 µg/mL); in experiment [9], 1260 µM (≈ 513 µg/mL); in [10], 314 µM (≈ 128 µg/mL); in [11], 314 µM (≈ 128 µg/mL); in experiment [12], 314 µM (≈ 128 µg/mL). Moreover, the MIC in [13] amounted to 627 µM (≈ 256 µg/mL); in [14], 314 µM (≈ 128 µg/mL); in [15], 627 µM (≈ 256 µg/mL); in experiment [16], 314 µM (≈ 128 µg/mL).
